{"source": "paper PMC7796304", "about": "“Nephrotoxic Potential of Putative 3,5-Dichloroaniline (3,5-DCA) Metabolites and Biotransformation of 3,5-DCA in Isolated Kidney Cells from Fischer 344 Rats” (International Journal of Molecular Sciences, 2020)", "key": {"[1]": {"tested_on": "isolated kidney cells (IKC)", "conditions": "0.5 mM 3,5-DCPHA, 60 min, pretreatment concentrations per Table 4"}, "[2]": {"tested_on": "isolated kidney cells (IKC)", "experiment": "Pretreatment with antioxidants or enzyme inhibitors before 3,5-DCNB, LDH release in IKC", "conditions": "1.0 mM 3,5-DCNB, 60 min, pretreatment concentrations per Table 4"}, "[3]": {"tested_on": "isolated kidney cells (IKC)", "experiment": "3,5-DCA metabolism by IKC, HPLC of media and cells", "conditions": "for free aminochlorophenol after arylsulfatase or β-glucuronidase treatment of media or cell lysates: 45 or 90 min", "experimental": "At the end of the incubation period, 1.0 mL samples were collected, and media and cells separated by centrifugation. The pelleted cells were washed with KH buffer (no bovine serum albumin), and the rinse was added to the media. Cells were lysed via sonication and protein was precipitated by methanol (1.0 mL) addition to all samples. Samples were centrifuged (3000 g; 10 min, 4 °C) and the supernatant filtered through a 0.45 µ syringe filter and stored at −20 °C until analyzed by HPLC as described below.\nTo determine if sulfate or glucuronide conjugates were formed, in some experiments, media and cell supernatant fractions obtained as described above were treated with β-glucuronidase (6500 units/mL, final concentration) or arylsulfatase (200 units/mL, final concentration) + saccaharolactone (20 mM, final concentration) for 18 h (37 °C) in 0.1 M acetate buffer (pH 5.0) to hydrolyze any glucuronide or sulfate conjugates, respectively, that were formed [26]. Hydrolysis was stopped by the addition of cold methanol (2.4 mL). The fractions were then filtered and stored until analyzed as described above.\nChromatograms were collected and integrated using Empower 3 software (Waters Co., Milford, MA, USA). A Waters X Select HSS T3 C18 column (3.5 µm; 4.6 × 150 mm^2) fitted with a Waters XSelect HSS T3 VanGuard Cartridge (3.5 µm; 3.9 × 5 mm^2) was used for separation of compounds. The mobile phase consisted of 50:50 methanol:water with a flow rate of 0.75 mL/min. Standard curves, limits of detection, and extraction coefficients were determined for 3,5-DCA and putative metabolites. Extraction coefficients were determined by comparing the integration of a 1.0 mM 3,5-DCA or a metabolite sample that had undergone sample processing (i.e., the addition of methanol and centrifugation) to that of a unprocessed 1.0 mM 3,5-DCA or metabolite sample."}, "[4]": {"tested_on": "isolated kidney cells (IKC)", "experiment": "Effect of DEDTCA pretreatment on 3,5-DCA metabolism in IKC", "conditions": "90 min; for Percent of Dose, Media / Percent of Dose, Cells / detection as 3,5-DCA metabolite in media and cells: 3,5-DCA 1.0 mM; for Percent of Dose, Media / Percent of Dose, Cells: N = 4, mean ± SE; for detection as 3,5-DCA metabolite in media and cells: DEDTCA experiment", "experimental": "In a separate experiment, cells were pretreated with diethyldithiocarbamic acid (DEDTCA, 0.1 mM, 30 min pretreatment), a CYP2C inhibitor, before 3,5-DCA addition to determine which metabolites were decreased with DEDTCA pretreatment. Following the 90 min incubation period, cells and media were treated and stored as described above for the determination of 3,5-DCA concentrations and the concentrations of 3,5-DCA metabolites formed.\nSamples (75 µL) of media and lysed IKC were analyzed on a Waters Alliance e2695 HPLC system (Waters Co., Milford, MA, USA), utilizing a Waters 2489 variable UV/Vis detector at 254 nM. Chromatograms were collected and integrated using Empower 3 software (Waters Co., Milford, MA, USA). A Waters X Select HSS T3 C18 column (3.5 µm; 4.6 × 150 mm^2) fitted with a Waters XSelect HSS T3 VanGuard Cartridge (3.5 µm; 3.9 × 5 mm^2) was used for separation of compounds. The mobile phase consisted of 50:50 methanol:water with a flow rate of 0.75 mL/min. Standard curves, limits of detection, and extraction coefficients were determined for 3,5-DCA and putative metabolites. Extraction coefficients were determined by comparing the integration of a 1.0 mM 3,5-DCA or a metabolite sample that had undergone sample processing (i.e., the addition of methanol and centrifugation) to that of a unprocessed 1.0 mM 3,5-DCA or metabolite sample."}, "[5]": {"tested_on": "isolated kidney cells (IKC)", "experiment": "LDH release cytotoxicity, time and concentration course, in isolated kidney cells", "conditions": "for LDH release (marker of cytotoxicity) / nephrotoxic potential among the metabolites tested: 0-1.5 mM; for LDH release (marker of cytotoxicity): 60 or 90 min; for nephrotoxic potential among the metabolites tested: up to 90 min"}, "[6]": {"tested_on": "rat renal cortical slices", "design": "method as in PMID 8023337", "conditions": "cited from earlier work"}, "[7]": {"tested_on": "rat renal cortical slices", "design": "method as in PMID 18243470", "conditions": "2 h exposure; cited from earlier work"}, "[8]": {"tested_on": "kidney", "conditions": "cited from earlier work"}, "[9]": {"tested_on": "renal cortical slices", "conditions": "cited from earlier work"}, "[10]": {"tested_on": "isolated kidney cells (IKC)", "design": "method as in PMID 26808022", "conditions": "cited from earlier work"}, "[11]": {"tested_on": "isolated kidney cells (IKC)", "design": "method as in PMID 26808022", "conditions": "90 min exposure; cited from earlier work"}, "[12]": {"design": "method as in PMID 26808022", "conditions": "calculated, Fischer 344 rat; cited from earlier work"}, "[13]": {"tested_on": "isolated kidney cells (IKC)", "design": "method as in PMID 26808022", "conditions": "cited from earlier work", "remark": "listed apart in the source"}, "[14]": {"conditions": "IKC incubated with 0.5 mM 3,5-DCA, 90 min, N = 3, mean ± SE"}, "[15]": {"conditions": "IKC incubated with 1.0 mM 3,5-DCA, 90 min, N = 4, mean ± SE"}, "[16]": {"conditions": "+DEDTCA (0.1 mM, 30 min pretreatment)"}, "[17]": {"conditions": "IKC incubated with 1.0 mM 3,5-DCA"}}, "data": [{"compound": "O=C1O[C@H]([C@@H](O)CO)C(O)=C1O", "note": "[ascorbate]", "values": [{"measurement": "effect of pretreatment on 3,5-DCPHA-induced cytotoxicity (LDH release)", "setting": "[1]", "value": "not effective at reducing 3,5-DCPHA cytotoxicity"}, {"measurement": "effect of pretreatment on 3,5-DCNB-induced cytotoxicity (LDH release)", "setting": "[2]", "value": "significantly attenuated"}]}, {"compound": "CC(=O)Nc1cc(Cl)cc(Cl)c1", "note": "[3,5-DCAA, 3,5-dichloroacetanilide]", "values": [{"measurement": "Percentage of Dose, Cells", "setting": "[3]; [14]", "value": "0.07 ^ %"}, {"measurement": "Percentage of Dose, Media", "setting": "[3]; [14]", "value": "1.86 ± 0.42", "unit": "%"}, {"measurement": "Percentage of Dose, Media", "setting": "[3]; [15]", "value": "0.56 ± 0.07", "unit": "%"}, {"measurement": "Percent of Dose, Media", "setting": "[4]; [16]", "value": "0.30 ± 0.05", "unit": "%"}, {"measurement": "Percent of Dose, Cells", "setting": "[4]; −DEDTCA", "value": "0.02 ^ %"}, {"measurement": "Percent of Dose, Media", "setting": "[4]; −DEDTCA", "value": "0.50 ± 0.03", "unit": "%"}, {"measurement": "LDH release (marker of cytotoxicity)", "setting": "[5]", "value": "did not significantly increase LDH release"}, {"measurement": "nephrotoxic potential among the metabolites tested", "setting": "[5]", "value": "not cytotoxic"}]}, {"compound": "Nc1cc(Cl)cc(Cl)c1O", "note": "[2-A-4,6-DCP, 2-amino-4,6-dichlorophenol]", "values": [{"measurement": "free aminochlorophenol after arylsulfatase or β-glucuronidase treatment of media or cell lysates", "setting": "[3]; [17]", "value": "did not reveal any free 2-A-4,6-DCP or 4-A-2,6-DCP"}, {"measurement": "detection as 3,5-DCA metabolite in media and cells", "setting": "[4]", "value": "no 2-A-4,6-DCP, 4-A-2,6-DCP or 3,5-DCPHA detected"}, {"measurement": "LDH release (marker of cytotoxicity)", "setting": "[5]", "value": "did not result in significant increases in LDH release"}, {"measurement": "nephrotoxic potential among the metabolites tested", "setting": "[5]", "value": "not cytotoxic"}]}, {"compound": "Cc1c(C)c2c(c(C)c1O)CC[C@@](C)(CCC[C@H](C)CCC[C@H](C)CCCC(C)C)O2", "note": "[α-tocopherol]", "values": [{"measurement": "effect of pretreatment on 3,5-DCNB-induced cytotoxicity (LDH release)", "setting": "[2]", "value": "significantly attenuated"}]}, {"compound": "N[C@@H](CCC(=O)N[C@@H](CS)C(=O)NCC(=O)O)C(=O)O", "note": "[glutathione]", "values": [{"measurement": "effect of pretreatment on 3,5-DCPHA-induced cytotoxicity (LDH release)", "setting": "[1]", "value": "fully protected"}, {"measurement": "effect of pretreatment on 3,5-DCNB-induced cytotoxicity (LDH release)", "setting": "[2]", "value": "significantly attenuated"}]}, {"compound": "CC(C)(C(=O)c1cccnc1)c1cccnc1", "note": "[metyrapone]", "values": [{"measurement": "effect of pretreatment on 3,5-DCNB-induced cytotoxicity (LDH release)", "setting": "[2]", "value": "significantly attenuated"}]}, {"compound": "CCCCCCCCN", "note": "[n-octylamine]", "values": [{"measurement": "effect of pretreatment on 3,5-DCNB-induced cytotoxicity (LDH release)", "setting": "[2]", "value": "significantly attenuated"}]}, {"compound": "CCCCOCCOCCOCc1cc2c(cc1CCC)OCO2", "note": "[piperonyl butoxide]", "values": [{"measurement": "effect of pretreatment on 3,5-DCNB-induced cytotoxicity (LDH release)", "setting": "[2]", "value": "significantly attenuated"}]}, {"compound": "CC(=O)N[C@@H](CS)C(=O)O", "note": "[N-acetyl-L-cysteine]", "values": [{"measurement": "effect of pretreatment on 3,5-DCPHA-induced cytotoxicity (LDH release)", "setting": "[1]", "value": "partially attenuated"}, {"measurement": "effect of pretreatment on 3,5-DCNB-induced cytotoxicity (LDH release)", "setting": "[2]", "value": "significantly attenuated"}]}, {"compound": "Nc1cc(Cl)c(O)c(Cl)c1", "note": "[4-A-2,6-DCP, 4-amino-2,6-dichlorophenol]", "values": [{"measurement": "concentration reducing uptake of p-aminohippurate (PAH)", "setting": "[6]", "value": 5, "unit": "µM"}, {"measurement": "concentration reducing uptake of tetraethylammonium (TEA)", "setting": "[6]", "value": 50, "unit": "µM"}, {"measurement": "concentration increasing LDH release", "setting": "[7]", "value": "≥ 50", "unit": "µM"}, {"measurement": "nephrotoxicity in vivo", "setting": "[8]; male Fischer 344 rats, 0.38 mmol/kg, i.p.", "value": "marked nephrotoxicity"}, {"measurement": "free aminochlorophenol after arylsulfatase or β-glucuronidase treatment of media or cell lysates", "setting": "[3]; [17]", "value": "did not reveal any free 2-A-4,6-DCP or 4-A-2,6-DCP"}, {"measurement": "detection as 3,5-DCA metabolite in media and cells", "setting": "[4]", "value": "no 2-A-4,6-DCP, 4-A-2,6-DCP or 3,5-DCPHA detected"}, {"measurement": "concentration required to increase LDH release", "setting": "[5]; 90 min exposure, albumin in medium, no reference given", "value": "≥ 250", "unit": "µM"}]}, {"compound": "COc1ccc2c(c1)c(CC(=O)O)c(C)n2C(=O)c1ccc(Cl)cc1", "note": "[Indomethacin]", "values": [{"measurement": "effect of pretreatment on 3,5-DCNB-induced cytotoxicity (LDH release)", "setting": "[2]", "value": "tended to reduce 3,5-DCNB-induced LDH release but did not reach a significant difference"}]}, {"compound": "O=[N+]([O-])c1cc(Cl)cc(Cl)c1", "note": "[3,5-DCNB, 3,5-dichloronitrobenzene]", "values": [{"measurement": "nephrotoxic potential among dichloronitrobenzenes", "setting": "[9]", "value": "least potent nephrotoxicant among the dichloronitrobenzenes"}, {"measurement": "Percentage of Dose, Cells", "setting": "[3]; [14]", "value": "0.41 ^ %"}, {"measurement": "Percentage of Dose, Media", "setting": "[3]; [14]", "value": "2.80 ^ %"}, {"measurement": "Percentage of Dose, Cells", "setting": "[3]; [15]", "value": "0.34 ± 0.19", "unit": "%"}, {"measurement": "Percentage of Dose, Media", "setting": "[3]; [15]", "value": "1.18 ± 0.57", "unit": "%"}, {"measurement": "Percent of Dose, Cells", "setting": "[4]; [16]", "value": "0.06 ^ %"}, {"measurement": "Percent of Dose, Media", "setting": "[4]; [16]", "value": "0.09 ^ %"}, {"measurement": "Percent of Dose, Cells", "setting": "[4]; −DEDTCA", "value": "0.13 ^ %"}, {"measurement": "Percent of Dose, Media", "setting": "[4]; −DEDTCA", "value": "0.31 ± 0.19", "unit": "%"}, {"measurement": "nephrotoxic potential among the metabolites tested", "setting": "[5]", "value": "intermediate in nephrotoxic potential"}, {"measurement": "concentration giving significant increase in LDH release", "setting": "[5]; 90 min exposure", "value": "≥ 1000", "unit": "µM"}]}, {"compound": "CCN(CC)C(=S)S", "note": "[DEDTCA, diethyldithiocarbamic acid, reference compound]", "values": [{"measurement": "effect of inhibitor pretreatment on 3,5-DCA cytotoxicity", "setting": "[10]", "value": "markedly reduced 3,5-DCA cytotoxicity"}, {"measurement": "effect of pretreatment on 3,5-DCA metabolite formation", "setting": "[4]; DEDTCA 0.1 mM, then 3,5-DCA 1.0 mM", "value": "formation of 3,5-DCAA and 3,5-DCNB were reduced"}]}, {"compound": "ONc1cc(Cl)cc(Cl)c1", "note": "[3,5-DCPHA]", "values": [{"measurement": "detection as 3,5-DCA metabolite in media and cells", "setting": "[4]", "value": "no 2-A-4,6-DCP, 4-A-2,6-DCP or 3,5-DCPHA detected"}, {"measurement": "nephrotoxic potential among the metabolites tested", "setting": "[5]", "value": "most potent nephrotoxicant"}, {"measurement": "concentration giving significant increase in LDH release", "setting": "[5]; 60 min exposure", "value": "≥ 250", "unit": "µM"}, {"measurement": "concentration giving significant increase in LDH release", "setting": "[5]; 90 min exposure", "value": "≥ 250", "unit": "µM"}]}, {"compound": "O=C(O)CC(S)C(=O)O", "note": "(stereo not shown) [mercaptosuccinate]", "values": [{"measurement": "effect of pretreatment on 3,5-DCNB-induced cytotoxicity (LDH release)", "setting": "[2]", "value": "significantly attenuated"}]}, {"compound": "NNC(=O)c1ccncc1", "note": "[isoniazid]", "values": [{"measurement": "effect of inhibitor pretreatment on 3,5-DCA cytotoxicity", "setting": "[10]", "value": "had no effect on 3,5-DCA cytotoxicity"}]}, {"compound": "Nc1cc(Cl)cc(Cl)c1", "note": "[3,5-DCA, 3,5-dichloroaniline]", "values": [{"measurement": "concentration leading to increased LDH release", "setting": "[11]", "value": "≥ 1000", "unit": "µM"}, {"measurement": "renal effects of in vivo exposure", "setting": "[8]; Sprague–Dawley or Fischer 344 rats", "value": "elevated blood urea nitrogen (BUN) concentration, decreased organic ion transport in proximal tubular cells, decreased kidney weight, proteinuria, and hematuria"}, {"measurement": "maximum blood level from a nephrotoxic dose", "setting": "[12]", "value": "~ 1.25 mM"}, {"measurement": "reduced and total glutathione levels", "setting": "[13]", "value": "both reduced"}, {"measurement": "Percentage of Dose, Cells", "setting": "[3]; [14]", "value": "6.82 ± 3.33", "unit": "%"}, {"measurement": "Percentage of Dose, Media", "setting": "[3]; [14]", "value": "89.31 ± 6.32", "unit": "%"}, {"measurement": "Percentage of Dose, Cells", "setting": "[3]; [15]", "value": "13.19 ± 2.12", "unit": "%"}, {"measurement": "Percentage of Dose, Media", "setting": "[3]; [15]", "value": "87.13 ± 4.56", "unit": "%"}, {"measurement": "fraction of 3,5-DCA metabolized to 3,5-DCAA and 3,5-DCNB", "setting": "[3]; IKC, 0.5 or 1.0 mM, 90 min", "value": "Less than 5%"}, {"measurement": "Percent of Dose, Cells", "setting": "[4]; [16]", "value": "14.67 ± 1.78", "unit": "%"}, {"measurement": "Percent of Dose, Media", "setting": "[4]; [16]", "value": "91.14 ± 3.04", "unit": "%"}, {"measurement": "Percent of Dose, Cells", "setting": "[4]; −DEDTCA", "value": "16.01 ± 2.02", "unit": "%"}, {"measurement": "Percent of Dose, Media", "setting": "[4]; −DEDTCA", "value": "89.43 ± 5.66", "unit": "%"}, {"measurement": "concentration that induces cytotoxicity (increased LDH release)", "setting": "[5]; 90 min", "value": 1000, "unit": "µM"}, {"measurement": "non-cytotoxic concentration", "setting": "[5]; 90 min", "value": 0.5, "unit": "mM"}]}]}
